According to patent US20220313662A1, “SUCCINATE DEHYDROGENASE INHIBITORS FOR BREAKING DORMANCY” (Valent BioSciences LLC, priority 2021, published 2022):

Legend:
Type in all cases: in vivo
[1] = tested on: Concord grape vines; assay: Example 1: bud break and shoot weight of potted Concord grape vines in a greenhouse; conditions: for Shoot Weight / shoot weight, more than control: 41 days after treatment; for time to 50% bud break, faster than control: rates of Table 1: malonate 3,000 and 10,000 ppm, penthiopyrad 1,428 ppm, inpyrfluxam 486 ppm, pydiflumetofen 968 ppm
Description: (§1) To assess the ability of SDHIs to promote and synchronize bud break and increase shoot weight, SDHIs were applied to shoots of potted 1 year old Concord grape vines grown in a greenhouse and examined for bud break (initiation of growth). Hydrogen cyanamide, malonate (malonic acid), inpyrfluxam, penthiopyrad and pydiflumetofen were each applied individually to the shoots of five potted concord grape rootstocks that were pruned to 5 nodes. Plants were evaluated for bud break periodically starting at 5 days after treatment. Plants were evaluated for shoot weight at 41 days after treatment.

[2] = tested on: Thompson seedless grapes; assay: Example 3: field trial, bud break and shoot growth of Thompson seedless grapes; design: Shoot Growth: unit not given beside the values; conditions: for Shoot Growth: equals sum of the three length classes
[3] = tested on: Concord grape vines; assay: Example 2: bud break and shoot weight of potted Concord grape vines, single SDHIs and mixtures (OCE/ECE, Abbott method); conditions: for Shoot Weight: 41 days after treatment
Description: as §1, with “of” for “of potted”, “old potted” for “old”, “inpyrfluxam,” for “inpyrfluxam, penthiopyrad”, “mixtures of malonate and inpyrfluxam” for “pydiflumetofen”, “applied” for “applied individually”
To determine if the mixtures provided unexpected results, the observed combined efficacy (“OCE”) was divided by the expected combined efficacy (“ECE”) to give an OCE/ECE ratio wherein the expected ECE is calculated by the Abbott method: […]
wherein ECE is the expected combined efficacy and in which A and B are the efficacy provided by the single active ingredients. If the ratio between the OCE of the mixture and the ECE of the mixture is greater than 1, then greater than expected interactions are present in the mixture. (Gisi, The American Phytopathological Society, 86:11, 1273-1279, 1996).

[4] = tested on: Thompson seedless grapes; assay: Example 3: field trial, bud break and shoot growth of Thompson seedless grapes
Description: Thompson seedless grapes were grown in the field in Kanoneiland, Northern Cape, South Africa during the 2021 growing season. Hydrogen cyanamide, malonate (malonic acid), and inpyrfluxam were each applied to the shoots of grape plants at 2 or 4 weeks before natural bud break. Plants were evaluated for bud break at 7 and 21 days after 1st bud break.

[5] = 2% v/v, 4 weeks before natural bud break
[6] = 2% v/v, applied 4 weeks before natural bud break
[7] = 486 ppm (Table 4), 2 weeks before natural bud break
[8] = 486 ppm, 2 weeks before natural bud break
[9] = 486 ppm, 4 weeks before natural bud break
[10] = 486 ppm, applied 4 weeks before natural bud break
[11] = 486 ppm, applied 2 weeks before natural bud break
[12] = applied at 10,000 ppm to shoots
[13] = 10,000 ppm (Table 4), 2 weeks before natural bud break
[14] = 10,000 ppm, 2 weeks before natural bud break
[15] = 10,000 ppm, 4 weeks before natural bud break
[16] = 10,000 ppm, applied 2 weeks before natural bud break
[17] = 10,000 ppm, applied 4 weeks before natural bud break

For `N#CN` [Hydrogen cyanamide, hydrogen cyanamide], the “Days to 50% BB” value ([1]; applied at 2% v/v to shoots) was 12 days, the “Days to 100% BB” value ([1]; applied at 2% v/v to shoots) was 17 days and the “Shoot Weight” value ([1]; applied at 2% v/v) was 27.4 g. For the same compound, the “effect on the number of days to 50% bud break (in words)” value ([1]; rates of Table 1, hydrogen cyanamide 2% v/v) was “no effect”, the “Shoot Growth (%) 1-5 cm” value [2, 5] was 21.7% and the “Shoot Growth (%) 5-10 cm” value [2, 5] was 16.1%. For the same compound, the “Shoot Growth (%) >10 cm” value [2, 5] was 29.3 c %, the “Shoot Growth” value [2, 5] was 67.2 and the “Bud Break % at 7 days after 1st bud break” value (“Bud Break % at 7 days” for short) [2, 6] was 63.2 b %. For the same compound, the “Bud Break % at 21 days after 1st bud break” value (“Bud Break % at 21 days” below) [2, 6] was 81.3 bcd %, the “Days to 50% BB” value ([3]; applied at 2% v/v to shoots) was 18 days and the “Days to 100% BB” value ([3]; applied at 2% v/v to shoots) was 16 days. For the same compound, the “Shoot Weight” value ([3]; applied at 2% v/v) was 8.9 g.
For `CC1CC(C)(C)c2c(F)ccc(NC(=O)c3cn(C)nc3C(F)F)c21` (stereo not shown) [Inpyrfluxam, inpyrfluxam], the “shoot weight, more than control” value ([1]; 486 ppm (Table 1)) was 44%, the “Days to 50% BB” value ([1]; applied at 486 ppm to shoots) was 9 days and the “Days to 100% BB” value ([1]; applied at 486 ppm to shoots) was 17 days. The “Shoot Weight” value ([1]; applied at 486 ppm) was 47 g, the “time to 50% bud break, faster than control” value (“time to 50% bud break” for short) [1] was “about 25%” and the “increase in shoot growth over Dormex” value [2, 7] was 15%. For the same compound, the “increase in shoot growth over control” value [2, 7] was 50%, the “increase in shoot growth over control” value ([2]; 486 ppm (Table 4), 4 weeks before natural bud break) was 27% and the “Shoot Growth (%) 1-5 cm” value [2, 8] was 27.7%. For the same compound, the “Shoot Growth (%) 5-10 cm” value [2, 8] was 21.1%, the “Shoot Growth (%) >10 cm” value [2, 8] was 28.8 c % and the “Shoot Growth” value [2, 8] was 77.6. The “Shoot Growth (%) 1-5 cm” value [2, 9] was 25.9%, the “Shoot Growth (%) 5-10 cm” value [2, 9] was 20.3% and the “Shoot Growth (%) >10 cm” value [2, 9] was 19.7 b %. The “Shoot Growth” value [2, 9] was 65.8, the “Bud Break % at 21 days” value [2, 10] was 90.3 def % and the “Bud Break % at 21 days” value ([2]; 486 ppm, applied 4 weeks before natural bud break, listed as inpyrfluxam) was “statistically significant increase over control”. The “Bud Break % at 7 days” value [4, 11] was 29.7 a %, the “Bud Break % at 21 days” value [4, 11] was 100 f % and the “Bud Break % at 21 days” value ([4]; 486 ppm, applied 2 weeks before natural bud break, listed as inpyrfluxam) was “statistically significant increase over control”. For the same compound, the “Bud Break % at 7 days” value [4, 10] was 36.8 a %, the “time to 50% bud break” value ([3]; 486 ppm) was “about 12%” and the “time to 100% bud break, faster than control” value (from here on “time to 100% bud break”) ([3]; 486 ppm) was 19%. For the same compound, the “time to 100% bud break” value ([3]; 972 ppm) was 38%, the “Days to 50% BB” value ([3]; applied at 97.2 ppm to shoots) was 27 days and the “Days to 100% BB” value ([3]; applied at 97.2 ppm to shoots) was 17 days. The “Shoot Weight” value ([3]; applied at 97.2 ppm) was 9.1 g, the “Days to 50% BB” value ([3]; applied at 194.4 ppm to shoots) was 29 days and the “Days to 100% BB” value ([3]; applied at 194.4 ppm to shoots) was 28 days. The “Shoot Weight” value ([3]; applied at 194.4 ppm) was 5.4 g, the “Days to 50% BB” value ([3]; applied at 486 ppm to shoots) was 22 days and the “Days to 100% BB” value ([3]; applied at 486 ppm to shoots) was 13 days. The “Shoot Weight” value ([3]; applied at 486 ppm) was 7.6 g, the “Days to 50% BB” value ([3]; applied at 972 ppm to shoots) was 27 days and the “Days to 100% BB” value ([3]; applied at 972 ppm to shoots) was 10 days. The “Shoot Weight” value ([3]; applied at 972 ppm) was 6.2 g.
For `O=C(O)CC(=O)O` [Malonate, malonic acid], the “days to 100% bud break, faster than control” value (“days to 100% bud break” for short) ([1]; 3,000 ppm) was 10%, the “shoot weight, more than control” value ([1]; 3,000 ppm) was 28% and the “days to 100% bud break” value ([1]; 10,000 ppm) was 19%. The “shoot weight, more than control” value ([1]; 10,000 ppm) was 58%, the “Days to 50% BB” value ([1]; applied at 3,000 ppm to shoots) was 7 days and the “Days to 100% BB” value ([1]; applied at 3,000 ppm to shoots) was 19 days. For the same compound, the “Shoot Weight” value ([1]; applied at 3,000 ppm) was 41.75 g, the “Days to 50% BB” value [1, 12] was 7 days and the “Days to 100% BB” value [1, 12] was 17 days. The “Shoot Weight” value ([1]; applied at 10,000 ppm) was 51.4 g, the “time to 50% bud break” value [1] was “about 40%” and the “increase in shoot growth over Dormex” value [2, 13] was 11%. The “increase in shoot growth over control” value [2, 13] was 44%, the “increase in shoot growth over control” value ([2]; 10,000 ppm (Table 4), 4 weeks before natural bud break) was 20% and the “Shoot Growth (%) 1-5 cm” value [2, 14] was 23.3%. For the same compound, the “Shoot Growth (%) 5-10 cm” value [2, 14] was 19.1%, the “Shoot Growth (%) >10 cm” value [2, 14] was 32 c % and the “Shoot Growth” value [2, 14] was 74.5. The “Shoot Growth (%) 1-5 cm” value [2, 15] was 27.7%, the “Shoot Growth (%) 5-10 cm” value [2, 15] was 17.8% and the “Shoot Growth (%) >10 cm” value [2, 15] was 16.6 b %. The “Shoot Growth” value [2, 15] was 62, the “Bud Break % at 21 days” value [2, 16] was 98.2 ef % and the “Bud Break % at 21 days” value [2, 17] was 87.5 cde %. For the same compound, the “Bud Break % at 7 days” value [4, 16] was 33.7 a %, the “Bud Break % at 21 days” value [4, 16] was “statistically significant increase over control” and the “Bud Break % at 7 days” value [4, 17] was 29 a %. The “time to 50% bud break” value ([3]; 1,000 ppm, 3,000 ppm and 10,000 ppm) was “about 4%”, the “time to 100% bud break” value ([3]; 10,000 ppm) was 25% and the “Days to 50% BB” value ([3]; applied at 300 ppm to shoots) was 25 days. The “Days to 100% BB” value ([3]; applied at 300 ppm to shoots) was 20 days, the “Shoot Weight” value ([3]; applied at 300 ppm) was 8.0 g and the “Days to 50% BB” value ([3]; applied at 1,000 ppm to shoots) was 24 days. For the same compound, the “Days to 100% BB” value ([3]; applied at 1,000 ppm to shoots) was 26 days, the “Shoot Weight” value ([3]; applied at 1,000 ppm) was 8.8 g and the “Days to 50% BB” value ([3]; applied at 3,000 ppm to shoots) was 24 days. For the same compound, the “Days to 100% BB” value ([3]; applied at 3,000 ppm to shoots) was 17 days, the “Shoot Weight” value ([3]; applied at 3,000 ppm) was 8.5 g and the “Days to 50% BB” value [3, 12] was 24 days. For the same compound, the “Days to 100% BB” value [3, 12] was 12 days and the “Shoot Weight” value ([3]; applied at 10,000 ppm) was 7.9 g.
In the case of `CC(C)CC(C)c1sccc1NC(=O)c1cn(C)nc1C(F)(F)F` (stereo not shown) [Penthiopyrad, penthiopyrad], the “days to 100% bud break” value ([1]; 1,428 ppm (Table 1)) is reported as 38%, the “Days to 50% BB” value ([1]; applied at 1,428 ppm to shoots) is reported as 7 days and the “Days to 100% BB” value ([1]; applied at 1,428 ppm to shoots) is reported as 13 days. The “Shoot Weight” value ([1]; applied at 1,428 ppm) was 29.4 g and the “time to 50% bud break” value [1] was “about 40%”.
With `CON(C(=O)c1cn(C)nc1C(F)F)C(C)Cc1c(Cl)cc(Cl)cc1Cl` (stereo not shown) [Pydiflumetofen, pydiflumetofen] the “Days to 50% BB” value ([1]; applied at 968 ppm to shoots) was 9 days, the “Days to 100% BB” value ([1]; applied at 968 ppm to shoots) was 26 days and the “Shoot Weight” value ([1]; applied at 968 ppm) was 24 g. For the same compound, the “time to 50% bud break” value [1] was “about 25%”.
